Experimental data: the OPERA property sets (Mansouri et al. 2018)

Details: for log10 biotransformation half-life (days): fish

Compound | melting point [°C] | boiling point [°C] | further results
CC(C(=O)O)c1ccc(N2CC=CC2)c(Cl)c1 (stereo not given) | 99 |  | 
C=CCN=C(S)NCCO | 78 |  | 
c1ccc(C2CC2)cc1 | -31 | 174 | 
CC(C)C(=O)C(=O)C(C)C |  | 144 | 
CCC(C)Br (stereo not given) | -112 | 91.2 | log10 vapour pressure (mmHg): 1.76
CSc1ccccc1 |  | 193 | log10 vapour pressure (mmHg): -0.314
Oc1cccc(-c2ccccc2)c1 | 78 |  | 
Nc1ccc(C(=O)Oc2ccccc2)c(O)c1 | 153 |  | 
Nc1c(Cl)cccc1Cl | 39 |  | log10 Koc (L/kg): 3.25
CCOC(=O)C1(c2cccc(O)c2)CCN(C)CC1 | 110 |  | 
CC(=O)c1cccc(C(C)=O)c1 | 32 |  | 
CN(C)C(=S)N(C)C | 79.3 | 245 | 
SC1CCCC1 |  | 132 | log10 vapour pressure (mmHg): 1.06
O=C(CC(c1ccccc1)c1ccccc1)c1ccccc1 | 96 |  | 
CC(=O)Nc1c(I)c(NC(C)=O)c(I)c(C(=O)[O-])c1I.[Na+] | 261 |  | 
CCCCOC(=O)C(Cl)Cl |  | 194 | 
Cc1ccc(N(C)C)cc1 |  | 211 | log10 vapour pressure (mmHg): -0.75
CC/C=C\CC1=C(C)CCC1=O |  | 258 | 
O=NN1CN2CN(C1)CN(N=O)C2 | 204 |  | ready biodegradability: readily biodegradable
COc1cc(OC)c2ccc(=O)oc2c1 | 149 |  | 
CC(=O)COc1ccccc1 |  | 230 | 
Cc1ccc(C(=O)NS(=O)(=O)c2ccc(N)cc2)cc1C | 222 |  | 
O=C(O)c1ccc(F)c(F)c1F | 141 |  | 

Compound | melting point [°C] | boiling point [°C] | further results
C#C[C@H](O)CC |  | 125 | 
C=COCCC(C)C |  | 112 | 
Cc1ccc(C(C)(C)C)cc1 | -52 | 190 | ready biodegradability: readily biodegradable; log10 biotransformation half-life (days): 0.31
CCCCCCCCCCCCCC(=O)OCC | 12.3 | 295 | 
C=CC(C)(O)CC (stereo not given) |  | 118 | 
COc1ccccc1Oc1ccccc1OC | 79.5 | 330 | 
CCCCNC(=O)NS(=O)(=O)c1ccccc1 | 131 |  | 
CCN(CC)c1nc(C)cc(OP(=S)(OC)OC)n1 | 15 |  | log10 Koc (L/kg): 3; log10 vapour pressure (mmHg): -4.82
O=C1CCC(=O)O1 | 119 | 261 | log10 vapour pressure (mmHg): -2.82
CC1(C)CCCCC1O (stereo not given) | 8 | 177 | 
FC(F)C(F)(F)Cl | -117 | -10 | 
Cc1ccc(C(C)C)c(OC(=O)NCCC(C)C)c1 | 57 |  | 
C1=Cc2ccccc2C1 | -1.8 | 182 | log10 biodegradation half-life (days): 0.477; log10 vapour pressure (mmHg): 0.0414
NC(Cc1n[nH]c2ccccc12)C(=O)O (stereo not given) | 240 |  | 
CC=Cc1ccccc1O | -6 | 220 | 
CC1=C(C(=O)Nc2ccccc2)SCCO1 | 91.5 |  | log10 Koc (L/kg): 2.41; log10 vapour pressure (mmHg): -6.82; ready biodegradability: readily biodegradable
O=[N+]([O-])c1ccc(Cl)c([N+](=O)[O-])c1 | 53 | 315 | log10 vapour pressure (mmHg): -4.07; ready biodegradability: not readily biodegradable
O=C(O)C=Cc1ccco1 | 143 |  | 
O=[N+]([O-])c1ccccc1CCl | 51 |  | 
C=Cc1cc(C)ccc1C | -35 |  | log10 vapour pressure (mmHg): 0
C/C(=N/NC(=O)c1ccncc1)c1ccco1 | 202 |  | 
O=C1C(=O)c2ccccc2-c2ccccc21 | 209 | 360 | 
O=C(O)CCc1ccc(O)cc1 | 131 |  | 

Compound | melting point [°C] | boiling point [°C] | further results
CCCCCCCOC(=O)CCCCCC | -33 | 277 | 
CC[N+](C)(CC)CCOC(=O)C(O)(c1ccccc1)C1CCCCC1.[Br-] (stereo not given) | 192 |  | 
CCC(C)CC(O)CC (stereo not given) | -91.2 | 172 | 
Clc1ccc(-c2c(Cl)c(Cl)cc(Cl)c2Cl)c(Cl)c1Cl |  |  | log10 biotransformation half-life (days): 2.5
CN(C)Cc1c[nH]c2ccccc12 | 138 |  | 
O=C(O)CCCc1ccc(N(CCCl)CCCl)cc1 | 65 |  | 
C=CCc1ccc(O)cc1 | 15.8 | 238 | 
N#C/C=C/c1ccccc1 | 22 | 264 | 
N#Cc1c(F)c(F)cc(F)c1F | 34 |  | 
COC(Cc1ccccc1)OC |  | 220 | 
CCOCCC#N |  | 154 | 
CCCCS/C(=N\c1cccnc1)SCc1ccc(C(C)(C)C)cc1 | 32 |  | 
CC(C)(C)c1cc(C=O)cc(C(C)(C)C)c1O | 186 |  | 
CCCCCCCCCCCCCN | 27.4 | 276 | 
CC(C)Cl | -117 | 35.7 | log10 vapour pressure (mmHg): 2.71
Cc1cc(Cl)ccc1NC(=S)N(C)C | 175 |  | 
CC(Cc1ccccc1)NC(C#N)c1ccccc1 (stereo not given) | 86 |  | 
CCC(C)C1(CC)C(=O)NC(=O)NC1=O (stereo not given) | 166 |  | 
CCCCOCCOCCCC | -69.1 | 203 | log10 vapour pressure (mmHg): -1.05
C#CC(C)=O |  | 84 | 
CC1(C)CCCNC1 |  | 137 | 
Clc1cc2c(oc3c(Cl)cccc32)c(Cl)c1Cl | 190 |  | log10 vapour pressure (mmHg): -7.4
